Tested on: hepatocarcinoma cell line (HepG2)
Assay: Oil Red O staining assay of triglyceride in free fatty acid-treated cells
Format: cell-based
Details: HepG2, 1 mM free fatty acid; 10, 30, 50 and 100 μM
Procedure: After the medium was removed from the Hepatocarcinoma cell line (HepG2), the cells were washed with 0.5 ml of PBS buffer solution, and the PBS buffer solution was completely removed therefrom. Then, 0.5 ml of 10% formalin was added thereto at room temperature and the resultant cells were incubated for 10 minutes.
After removing the formalin and adding 0.5 ml of fresh formalin, the cells were incubated for at least 1 hour (the cells can be stored in a formalin solution for several days before staining, and needs to be wrapped with an aluminum foil and parafilm to prevent the cells from being dried). […]
0.5 ml of an Oil Red O solution was added to the dried cells, which was then incubated at room temperature for 10 minutes. […] The debris of the staining solution was removed as much as possible, and images of the cells were obtained using a fluorescence microscope.
To the cells that had been completely dried, 0.5 ml of Oil Red O staining solution prepared by using 100% of isopropanol in a dry state was added. […] At this time, the resultant solution was mixed with a pipette up and down so that the cells were stained well with Oil Red O. Then, the mixture was transferred to a 96-well plate and the OD was measured at 500 nm. The OD value of 100% isopropanol was measured and used as a reference value (0 point).

CC1(C)[C@@H](O)CC[C@]2(C)[C@H]3C(=O)C=C4[C@@H]5C[C@@](C)(C(=O)O)CC[C@]5(C)CC[C@@]4(C)[C@]3(C)CC[C@@H]12 [18 beta-glycyrrhetinic acid]
content of triglyceride in Oil-red-O staining images: the higher concentration of 18 beta-glycyrrhetinic acid, the smaller content of triglyceride

Reference: US10617732B2, “Composition including extract of Dolichos lablab Linne as active ingredient for preventing or ameliorating non-alcoholic fatty liver disease” (KOREA INSTITUTE OF ORIENTAL MEDICINE, priority 2014, dated 2020)
